Reference: patent US6288070A, “Triazolopurine derivatives, medicinal composition containing the derivatives, adenosine A3 receptor compatibilizing agent, and asthmatic remedy” (Otsuka Pharmaceutical Factory, Inc., priority 1998, dated 2001)
Like-named read-outs stand apart in the source and are kept apart here.

What was measured:
adenosine A3 receptor = target: T1, adenosine A3 receptor (Homo sapiens, UniProt P0DMS8); assay: biochemical; conditions: [125I]AB-MECA, membrane of HEK-293 cells transformed with A3 receptor plasmid, read-out: Receptor binding capacity (IC50) Adenosine A3
T1 construct: expressed in transfected cells; host or cells: HEK-293
T1 sequence (P0DMS8 1-318): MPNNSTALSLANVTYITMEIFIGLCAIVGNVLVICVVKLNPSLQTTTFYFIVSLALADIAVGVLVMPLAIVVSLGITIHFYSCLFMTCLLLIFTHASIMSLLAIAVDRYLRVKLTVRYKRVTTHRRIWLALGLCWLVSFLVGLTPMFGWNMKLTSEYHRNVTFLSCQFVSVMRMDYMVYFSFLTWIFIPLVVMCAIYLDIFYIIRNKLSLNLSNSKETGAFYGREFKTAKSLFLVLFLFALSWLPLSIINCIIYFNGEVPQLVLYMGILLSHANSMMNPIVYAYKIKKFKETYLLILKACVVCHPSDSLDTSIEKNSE

adenosine A2 receptor = target: T2, adenosine A2 receptor (Rattus norvegicus, UniProt P30543); assay: Adenosine A2 receptor binding capacity
T2 construct: from tissue
T2 sequence (P30543 whole entry): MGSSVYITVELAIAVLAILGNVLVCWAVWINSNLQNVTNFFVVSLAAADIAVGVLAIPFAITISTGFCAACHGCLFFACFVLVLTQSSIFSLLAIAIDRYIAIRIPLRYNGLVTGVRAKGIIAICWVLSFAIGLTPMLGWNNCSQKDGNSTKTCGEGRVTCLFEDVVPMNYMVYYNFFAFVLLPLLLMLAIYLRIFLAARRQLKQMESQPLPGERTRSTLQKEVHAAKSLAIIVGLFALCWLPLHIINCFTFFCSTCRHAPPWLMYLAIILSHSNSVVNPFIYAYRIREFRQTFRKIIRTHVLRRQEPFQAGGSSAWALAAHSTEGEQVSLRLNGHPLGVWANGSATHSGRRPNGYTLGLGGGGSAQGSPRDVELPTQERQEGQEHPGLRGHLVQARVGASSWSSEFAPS

adenosine A1 receptor = target: T3, adenosine A1 receptor (Rattus norvegicus, UniProt P25099); assay: biochemical
T3 sequence (P25099 1-326): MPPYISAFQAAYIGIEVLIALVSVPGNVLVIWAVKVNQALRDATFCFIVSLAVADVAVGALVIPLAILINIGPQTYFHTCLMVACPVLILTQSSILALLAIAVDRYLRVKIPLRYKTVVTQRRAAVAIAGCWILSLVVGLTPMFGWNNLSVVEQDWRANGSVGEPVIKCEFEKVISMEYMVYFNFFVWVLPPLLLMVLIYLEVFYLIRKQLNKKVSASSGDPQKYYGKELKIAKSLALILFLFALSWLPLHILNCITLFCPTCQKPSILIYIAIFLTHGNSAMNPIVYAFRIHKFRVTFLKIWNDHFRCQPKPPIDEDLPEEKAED

[1] = adenosine A2 receptor, read-out: Receptor binding capacity (IC50) Adenosine A2

SMILES | IC50 (adenosine A3 receptor) | IC50 (adenosine A2 receptor; [1]) | IC50 (adenosine A1 receptor) | IC50 (adenosine A2 receptor)
CCCCc1nc2[nH]cnc2c2nc(-c3cc(OC)c(OC)c(OC)c3)nn12 [Example 12, 5-n-butyl-8-(3,4,5-trimethoxyphenyl)-1H-1,2,4-triazolo[5,1-i]purine] | – | – | 1000 nM | –
c1ccc(-c2nc3c4nc[nH]c4nc(-c4ccccc4)n3n2)cc1 [Example 18] | – | – | 6.4 nM | –
CCCCc1nc2[nH]cnc2c2nc(-c3ccc(C(F)(F)F)cc3)nn12 [Example 59] | – | > 10000 nM | – | –
CCCCc1nc2nc[nH]c2c2nc(-c3ccc(N(CC)CC)cc3)nn12 [Example 54] | 7.8 nM | > 10000 nM | – | –
COc1cc(-c2nc3c4[nH]cnc4nc(C)n3n2)cc(OC)c1OC [Example 2] | 96 nM | – | – | –
CCCCc1nc2[nH]cnc2c2nc(-c3cccnc3)nn12 [Example 13] | – | – | 228 nM | –
CCCCc1nc2nc[nH]c2c2nc(-c3ccc(OC(F)(F)F)cc3)nn12 [Example 58] | 5.8 nM | > 10000 nM | – | –
CCCCc1nc2nc[nH]c2c2nc(-c3ccc(OCc4ccccc4)cc3)nn12 [Example 49] | 1.7 nM | > 10000 nM | – | –
CCCCc1nc2nc[nH]c2c2nc(-c3ccc(N(Cc4ccccc4)Cc4ccccc4)cc3)nn12 [Example 60] | 15 nM | > 10000 nM | – | –
CCCCc1nc2nc[nH]c2c2nc(-c3ccc(C(C)C)cc3)nn12 [Example 68] | 5.1 nM | > 10000 nM | – | –
CCCCc1nc2[nH]cnc2c2nc(-c3ccc(OCCC)cc3)nn12 [Example 45] | – | > 10000 nM | – | –
CCCCc1nc2[nH]cnc2c2nc(-c3ccc(N(C)C)cc3)nn12 [Example 42] | – | > 10000 nM | – | –
CCCCc1nc2nc[nH]c2c2nc(-c3ccc(Oc4ccccc4)cc3)nn12 [Example 62] | 6.6 nM | > 10000 nM | – | –
CCCCc1nc2nc[nH]c2c2nc(-c3ccc(CP(=O)(OCC)OCC)cc3)nn12 [Example 65] | 3.7 nM | – | – | > 10000 nM
Cc1nc2[nH]cnc2c2nc(-c3ccccc3)nn12 [Example 1, 5-methyl-8-phenyl-1H-1,2,4-triazolo[5,1-i]purine] | – | – | 101 nM | –
CCCCc1nc2[nH]cnc2c2nc(-c3ccc(C(C)(C)C)cc3)nn12 [Example 69] | – | > 10000 nM | – | –
CCCCc1nc2[nH]cnc2c2nc(-c3ccco3)nn12 [Example 15] | – | – | 42 nM | –

Continued, in another order:

IC50 (adenosine A3 receptor) | IC50 (adenosine A2 receptor; [1]) | IC50 (adenosine A1 receptor) | SMILES | IC50 (adenosine A2 receptor)
5.4 nM | 1800 nM | – | CCCCc1nc2nc[nH]c2c2nc(-c3ccc(CC)cc3)nn12 [Example 67] | –
< 1 nM | 247 nM | 178 nM | CCCCc1nc2nc[nH]c2c2nc(-c3ccccc3O)nn12 [Example 6] | –
– | > 10000 nM | – | CCCCc1nc2nc[nH]c2c2nc(-c3ccc(-c4ccccc4)cc3)nn12 [Example 50] | –
< 1 nM | 716 nM | – | CCCCc1nc2nc[nH]c2c2nc(-c3ccc4ccccc4c3)nn12 [Example 64] | –
1.6 nM | > 10000 nM | – | CCCCc1nc2nc[nH]c2c2nc(-c3ccc(OC)c(OC)c3)nn12 [Example 51] | –
– | > 10000 nM | – | CCCCc1nc2nc[nH]c2c2nc(-c3ccc(SC)cc3)nn12 [Example 66] | –
9 nM | 3700 nM | – | CCCCCCCc1nc2nc[nH]c2c2nc(-c3ccccc3)nn12 [Example 37] | –
– | 115 nM | – | CCCc1nc2nc[nH]c2c2nc(-c3ccccc3)nn12 [Example 23] | –
95 nM | 3000 nM | 2600 nM | Cc1nc2nc[nH]c2c2nc(-c3cccnc3)nn12 [Example 3] | –
1.1 nM | 723 nM | 1300 nM | CCCCc1nc2nc[nH]c2c2nc(/C=C/c3ccccc3)nn12 [Example 17] | –
1.5 nM | 546 nM | 93 nM | COc1cc(-c2nc3c4[nH]cnc4nc(-c4ccccc4)n3n2)cc(OC)c1OC [Example 19] | –
1 nM | 2400 nM | – | CCCCc1nc2nc[nH]c2c2nc(-c3ccc(NC)cc3)nn12 [Example 63] | –
– | 184 nM | – | CCCCc1nc2[nH]cnc2c2nc(-c3ccc(C)cc3)nn12 [Example 5] | –
< 1 nM | 1800 nM | – | CCCCc1nc2nc[nH]c2c2nc(-c3ccc(NCc4ccccc4)cc3)nn12 [Example 61] | –
7.4 nM | 31 nM | 21 nM | c1ccc(-c2nc3nc[nH]c3c3nc(-c4cccnc4)nn23)cc1 [Example 20] | –
– | 205 nM | – | CCCCCc1nc2nc[nH]c2c2nc(-c3ccccc3)nn12 [Example 34, 5-pentyl-8-phenyl-1H-1,2,4-triazolo[5,1-i]purine] | –
< 1 nM | 111 nM | – | Cc1cccc(-c2nc3nc[nH]c3c3nc(-c4ccccc4)nn23)c1 [Example 35] | –
